# Patent publication US8916604B2, “Compositions and methods for epigenetic modification of nucleic acid sequences” (Rutgers, The State University of New Jersey, priority 2011, dated 2014)
# What was measured:
# [1] = tested on: first 5 CpGs of Nrf2 gene promoter; assay: Methylated DNA immunoprecipitation (MeDIP) in TRAMP C1 cells; assay type: cell-based, mouse
# Protocol: The DIM used in the study contains approximately 98% of DIM purchased from Sigma-Aldrich t St. Louis, Mo., USA), TRAMP C1 cells (provided by Dr. Barbara Foster, Department of Pharmacology and Therapeutics, Roswell Park Cancer institute, Buffalo. NY), originally derived from TRAMP prostate tumor, were cultured in Dulbecco's Modified Eagle's Medium (Invitrogen Corp., Carlsbad, Calif. U.S.A.) supplemented with 10% (V/V) fetal bovine serum (FBS) (Invitrogen Corp., Grand Island, N.Y., U.S.A.), penicillin 100 U/ml, and streptomycin 100 μg/ml (Invitrogen Corp., Grand Island, N.Y., U.S.A.), Cells were maintained in a humidified incubator with 5% CO2 at 37° C. Cells were seeded in 10 cm plates for 24 h and then treated with 0.1% DMSO (control) or different concentrations of DIM in 1% FBS containing medium for 5 days. The medium was changed every 2 days (20),
# Genomic DNA (8 μg each) extracted from control and DIM treated TRAMP C1 cells were used for the MeDIP analysis, analogous to other chromatin immuno-precipitation (ChIP) analysis. The DNAs were adjusted to 150 μl using TE buffer in DNA. LoBind tubes. DNAs were fragmented by sonication on ice-water using a Bioruptor sonicator (Diagnode Inc., Sparta, N.J., U.S.A.) and the size of sheared DNA fragment (around 300 to 500 bp) was checked by gel electrophoresis. […]
# [2] = Overall health and toxicity of TRAMP mice on DIM diet; assay type: in vivo
# Protocol: DIM was obtained from Sigma-Aldrich (St. Louis, Mo., U.S.A.). MN-76A diets containing 1% DIM were prepared by Research Diets Inc. (New Brunswick, N.J., U.S.A.) and stored at −20° C. The dose was chosen based in part on studies reported previously Anderton et al., Drug Metab Dispos. 2004; 32: 632-8; and Xue et al., J Nutr Biochem. 2008; 19: 336-44). In our present study, 1% DIM was well-tolerated with these TRAMP mice. The control TRAMP males (n=19) received A1N-76A diets throughout the experiment while the treated TRAMP males received 1% DIM diet starting from eight weeks of age (n=9) as Group 1 (D-G1) and Group 2 (D-G2) starting from twelve weeks of age (n=8) (FIG. 12A). Fresh diets were added to the cages twice weekly.
# TRAMP males were weighed weekly and the overall health of the animals was monitored on a regular basis. All mice were sacrificed at the age of 24 weeks by carbon dioxide euthanasia and the genitourinary apparatus (GU) consisting of the seminal vesicles, prostate, and bladder were isolated for further analyses (FIG. 12B).
# The overall health of all the mice was monitored during the study period and found to be in good health. All mice were weighed and checked weekly during the course of this study.
# DNMT3b = assay: qPCR in TRAMP C1 cells; assay type: cell-based, mouse; conditions: 5 μM and 10 μM
# Protocol: (§1) The DIM used in the study contains approximately 98% of DIM purchased from Sigma-Aldrich t St. Louis, Mo., USA), TRAMP C1 cells (provided by Dr. Barbara Foster, Department of Pharmacology and Therapeutics, Roswell Park Cancer institute, Buffalo. NY), originally derived from TRAMP prostate tumor, were cultured in Dulbecco's Modified Eagle's Medium (Invitrogen Corp., Carlsbad, Calif. U.S.A.) supplemented with 10% (V/V) fetal bovine serum (FBS) (Invitrogen Corp., Grand Island, N.Y., U.S.A.), penicillin 100 U/ml, and streptomycin 100 μg/ml (Invitrogen Corp., Grand Island, N.Y., U.S.A.), Cells were maintained in a humidified incubator with 5% CO2 at 37° C. Cells were seeded in 10 cm plates for 24 h and then treated with 0.1% DMSO (control) or different concentrations of DIM in 1% FBS containing medium for 5 days. The medium was changed every 2 days (20), Total RNA were extracted from DIM treated TRAMP C1 cells and were reversed transcribed. The primers, DNMT1, DNMT3a, DNMT3b, NQO1, HO-1, GSTm1, UGT1a1 and control β-actin of qPCR are listed in Table 5 (Integrated DNA. Technologies, Coralville, Iowa, U.S.A.), The qPCR reactions were carried out with 1 μl cDNA product, 50 nM of each primer, and Power SYBR Green master mix (Applied Biosystems, Foster City, Calif., U.S.A.) in 10 μl reactions. The reactions were performed using an ABI Prism 7900HT sequence detection system; specificity of amplification was verified by first-derivative inciting curve analysis using the ABI software (SDS 2.3, Applied Biosystems, Foster City, Calif., U.S.A.). Relative quantification of gene expression profile was calculated using a ΔΔCt method. (RQ manager, Applied Biosystems, Foster City, C. CA, U.S.A.) as we have performed previously (Barve et al., J Pharm Sci., 2008; 94: 4528-45). Three independent experiments were carried out showing similar results. The results are presented as mean±SD.
# GSTm1 = assay: qPCR in TRAMP C1 cells; assay type: cell-based, mouse; conditions: 5 days
# Protocol: as §1
# DNMT1 = assay: qPCR in TRAMP C1 cells; assay type: cell-based, mouse; conditions: 5 μM and 10 μM, p<0.05
# Protocol: as §1
# Nrf2 = assay: qPCR in TRAMP C1 cells; assay type: cell-based, mouse; conditions: 5 days
# Protocol: as §1
smiles,measurement,setting,value
"c1ccc2c(Cc3c[nH]c4ccccc34)c[nH]c2c1 [DIM, 3,3′-diindolylmethane]",methylated DNA bound by anti-mecyt antibody,[1],reduced
same,"weights of liver, kidney and spleen","[2]; 1% DIM diet, at sacrifice",no significant change
same,body weights,"[2]; 1% DIM diet, throughout the study period",No significant change
same,signs of toxicity,"[2]; mouse, in vivo",no specific observable sign of toxicity
same,tolerability,"[2]; mouse, in vivo",well-tolerated
same,DNMT3b mRNA expression,DNMT3b,suppressed
same,GSTm1 mRNA expression,GSTm1,enhanced
same,DNMT1 mRNA expression,DNMT1,significantly suppressed
same,Nrf2 mRNA expression,Nrf2,enhanced
